Measured values reported in patent US20160220464A1 (WUHAN OPTICS VALLEY BRIDGEBIOMED INTERNATIONAL CORPORATION, priority 2013, published 2016).
Where two headings read alike, the source gives them in different places.

Experiments:
Type in all cases: cell-based
[1] = target: T1, bradykinin (BK) B2 receptors (Homo sapiens, UniProt P30411); experiment: PG secretion by BK B2 receptor agonists (PG kit, OD), EC50 and Emax; conditions: HASMC; for Emax: relative to BK
T1 construct: The cell strains used in the study were human primary vein endothelial cells (HPVEC) and human aortic smooth muscle cells (HASMC); endogenous in cells; host or cells: human primary vein endothelial cells (HPVEC) and human aortic smooth muscle cells (HASMC)
T1 sequence (P30411 1-391): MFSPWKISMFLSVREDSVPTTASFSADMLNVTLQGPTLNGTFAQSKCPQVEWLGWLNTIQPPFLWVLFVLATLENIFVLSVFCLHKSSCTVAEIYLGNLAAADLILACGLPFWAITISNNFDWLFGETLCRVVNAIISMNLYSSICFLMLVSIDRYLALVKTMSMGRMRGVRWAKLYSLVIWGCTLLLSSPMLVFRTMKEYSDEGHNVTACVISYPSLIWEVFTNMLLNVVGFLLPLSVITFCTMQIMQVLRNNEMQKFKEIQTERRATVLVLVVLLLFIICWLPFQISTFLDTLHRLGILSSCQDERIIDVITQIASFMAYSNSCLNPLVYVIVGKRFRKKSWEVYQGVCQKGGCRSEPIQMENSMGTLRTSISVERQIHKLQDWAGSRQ
Protocol: Implantation Two cell lines were transferred into T-75 cell culture flask, and then the instructions of PG kit were strictly followed when cells have reached the appropriate density. Day 1 Cells were seeded in 24 well dishes with minimum medium and allowed to adhere overnight. Day 2 Cells were starved in the serum-free conditioned medium. Day 3 Minimum medium were used, and YLB-01, YLB-02 and YLB-03 were added to the medium, in which the concentration was 0.1 nM, 1 nM, 10 nM, 30 nM, 100 nM, 300 nM, 1 μM, 3 μM and 10 μM, respectively; the cells were incubated at 37° C. for 1 h. The supernatant was collected after incubation for later use. Day 4 24 well dishes were washed and then dyed for 45-90 min, and then the OD value was measured for analysis. The cell strains used in the study were human primary vein endothelial cells (HPVEC) and human aortic smooth muscle cells (HASMC).

[2] = target: T2, B2 receptor (Homo sapiens, UniProt P30411); experiment: Relative PG secretion with B2 receptor inhibitor HOE-140; conditions: 1 μM BK set as 100%
T2 construct: The cell strains used in the study were human primary vein endothelial cells (HPVEC) and human aortic smooth muscle cells (HASMC); endogenous in cells; host or cells: human primary vein endothelial cells (HPVEC) and human aortic smooth muscle cells (HASMC)
T2 sequence (P30411 1-391): T1 sequence (P30411 1-391)
Protocol: Two different cell lines were transferred into T-75 cell culture flask, and then the instructions of PG kit were strictly followed when cells have reached the appropriate density. Day 1. Cells were seeded in 24 well dishes with minimum medium and allowed to adhere overnight. Day 2. Cells were starved in the serum-free conditioned medium. Day 3. […] Cells were incubated at 37° C. for 1 h. The supernatant was collected after incubation for later use. Day 4. 24 well dishes were washed and then dyed for 45-90 min, and then the quantitative analysis was carried out.

[3] = test system: human aortic smooth muscle cells (HASMC); experiment: PG subtype secretion by EIA in HASMC; conditions: 10 nM, 1 μM BK set as 100%
[4] = test system: human primary vein endothelial cells (HPVEC); experiment: PG subtype secretion by EIA in HPVEC; conditions: 10 nM, 1 μM BK set as 100%
Protocol: In order to study of prostaglandin subtypes secretion triggered by activation of B2 receptor by these three compounds, human primary vein endothelial cells (HPVEC) and human aortic smooth muscle cells (HASMC) were used for PG secretion, following the same protocol above; 10 nM of these compounds, YLB-1, YLB-2, YLB-3 was added. […] These percentage values above were all calibrated with respect to bradykinin.

## CNC(=O)c1ccc(CCC(=O)NCC(=O)N(C)c2ccc(Cl)c(COc3cccc4c3nc(OC)n4Cc3ccccn3)c2Cl)cc1 [YLB-01, 4-(3-2-((2,4-dichloro-3-((2-methoxy-1-(pyridine-2ylmethyl)-1H-benzo[d]imidazol-4-yloxy)methyl)phenyl)(methyl)amino-2-oxoethylamino)-3-oxopropyl)-N-methylbenzamid]
[1]; 1 h incubation at 37° C.
  EC50: 0.0244 ± 0.003 µM
[1]; read-out: Emax
  Emax: 87%
[1]
  Emax: 87.79 ± 4.2%
[2]; agonist 0.1 nM + HOE-140 1 μM
  Relative PG Secretion Amount with 1 μM HOE-140: 1.54 ± 2.53%
[2]; agonist 1 nM + HOE-140 1 μM
  Relative PG Secretion Amount with 1 μM HOE-140: 4.21 ± 3.74%
[2]; agonist 10 nM + HOE-140 1 μM
  Relative PG Secretion Amount with 1 μM HOE-140: 4.17 ± 3.21%
[2]; agonist 30 nM + HOE-140 1 μM
  Relative PG Secretion Amount with 1 μM HOE-140: 2.86 ± 2.35%
[2]; agonist 100 nM + HOE-140 1 μM
  Relative PG Secretion Amount with 1 μM HOE-140: 3.44 ± 3.77%
[2]; agonist 300 nM + HOE-140 1 μM
  Relative PG Secretion Amount with 1 μM HOE-140: 0.45 ± 2.86%
[2]; agonist 1 μM + HOE-140 1 μM
  Relative PG Secretion Amount with 1 μM HOE-140: 3.66 ± 2.11%
[2]; agonist 3 μM + HOE-140 1 μM
  Relative PG Secretion Amount with 1 μM HOE-140: 6.98 ± 1.6%
[2]; agonist 10 μM + HOE-140 1 μM
  Relative PG Secretion Amount with 1 μM HOE-140: 40.32 ± 3.27%
[3]
  PGD2: undetectable
  PGE2: 34.64 ± 12.27%
  PGF-2a: 5.68 ± 2.08%
[4]
  PGD2: undetectable
  PGE2: 30.24 ± 5.40%
  PGF-2a: 6.29 ± 1.01%
